In the assay the target is Delta-type opioid receptor (Homo sapiens, UniProt P41143). Kind of assay: delta opioid receptor blockers – image-based, SAR follow-up (AID 2357).
Chain of Delta-type opioid receptor (P41143 whole entry): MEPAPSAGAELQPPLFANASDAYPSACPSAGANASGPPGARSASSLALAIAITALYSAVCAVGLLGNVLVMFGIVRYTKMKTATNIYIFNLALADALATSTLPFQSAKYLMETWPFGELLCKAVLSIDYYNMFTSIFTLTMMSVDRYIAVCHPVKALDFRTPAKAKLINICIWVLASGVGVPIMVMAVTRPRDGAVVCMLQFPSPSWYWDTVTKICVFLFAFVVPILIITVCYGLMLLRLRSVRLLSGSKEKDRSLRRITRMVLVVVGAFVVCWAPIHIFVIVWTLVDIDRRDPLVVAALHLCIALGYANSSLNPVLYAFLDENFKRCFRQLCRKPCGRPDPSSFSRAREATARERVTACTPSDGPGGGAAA

One may read the IC50 as the concentration that inhibits the measured activity by half. A low value points to greater potency. Compound `CCC(N=Nc1ccnc2cc(Cl)ccc12)c1ccc(O)cc1` (configuration not stated) [4-[1-[2-(7-chloroquinolin-4-yl)hydrazinyl]propylidene]cyclohexa-2,5-dien-1-one] gave an IC50 of 32 µM. `Oc1ccc(CN=Nc2ccnc3cc(Cl)ccc23)cc1O` [(4Z)-4-[[2-(7-chloroquinolin-4-yl)hydrazinyl]methylidene]-2-hydroxycyclohexa-2,5-dien-1-one] displayed a half-inhibitory concentration (IC50) of 18.9 µM. This IC50 is about 1.7-fold lower than that of the compound before.
